This is an account of results in publication PMC10108266, “Pharmacokinetic characteristics of golidocitinib, a highly selective JAK1 inhibitor, in healthy adult participants” (Frontiers in Immunology, 2023).

For one series, the system named is JAK1. On the set-up: method as in PMID 32297743. To be noted: ref [9]; cited from earlier work.
Series [1] in a line: JACKPOT2 MAD urinary PK (Day 14). The format is in vivo, human. To be noted: for CLtotal: CL/F * F (0.7 from PBPK model); for Fe0-t: CLr/CLtotal; for Ae0-t: urine 0-24 hour on Day 14; for CL renal: human, oral. The text has this:
In the SAD cohorts, serial blood samples were obtained on Day 1 at pre-dose, and at 0.5, 1, 1.5, 2, 3, 4, 6, 10, 14, 24 (Day 2), 48 (Day 3), 72 (Day 4), 120 (Day 6), 168 (Day 8) and 216 (Day 10) hours post-dose for plasma PK analysis. A similar sampling schedule was undertaken for the MAD cohorts on Day 1 and Day 14, with additional trough samples obtained on Days 5, Day 8, and Day 11. In the MAD cohorts, urine samples were collected on Day 14 during the collection intervals of 0-4, 4-10, and 10-24 hours following the last dose for urine PK analysis. Plasma and urine samples were analyzed by Frontage Laboratories Inc. (New Jersey, USA) using a validated LC/MS/MS bioanalytical method to determine golidocitinib concentrations. Cross validation in plasma was successful between Frontage Laboratories Inc. (New Jersey, USA) and Frontage Laboratories Inc. (Shanghai) using clinical samples and spiked quality control samples.
The mean (SD) amount of golidocitinib excreted in the urine over the collection period and renal clearance are presented in Table 2B . The average amount of golidocitinib excreted in the urine increased in an approximately dose proportional manner from 25 mg to 100 mg. […] The renal excretion fraction (Fe0-t) is helpful to compare the renal clearance (CLr) with total clearance (CLtotal) and determine the contribution of renal clearance in the drug elimination. It was calculated by the equation Fe0-t = CLr/CLtotal. The CL/F values were obtained from the two Phase I studies after the oral administration. Since the pharmacokinetics of golidocitinib after intravenous injection was not studied, the bioavailability value (F) was calculated by physiologically based pharmacokinetic (PBPK) model that incorporated compound specific information and independent prior knowledge on the physiology and biology at the organism.

The nature of a further series: Solubility in vitro. The format is physicochemical.

Where two headings read alike, the source gives them in different places.

Regarding `COc1nn(C)cc1Nc1nccc(-c2c[nH]c3c(NC(=O)[C@@H](C)N4CCN(C)CC4)cccc23)n1` [golidocitinib, (2R)-N-[3-[2-[(3-Methoxy-1-methyl-pyrazol-4-yl)amino]pyrimidin-4-yl]-1H-indol-7-yl]-2-(4-methylpiperazin-1-yl)propenamide], in the series on JAK1, the “selectivity to JAK1 over other JAK family kinases” value is reported as “greater than 200 folds”. Also, the CLtotal in series [1] (25 mg once daily 14 days) is given as 15.2 L/h; in series [1] (50 mg once daily 14 days), 15.5 L/h; in series [1] (100 mg once daily 14 days), 13.4 L/h. Further, the figures for the Fe0-t in series [1] (25 mg once daily 14 days), in series [1] (50 mg once daily 14 days) and in series [1] (100 mg once daily 14 days) were 20.9%, 23.9% and 20.2%, respectively. The Ae0-t is 4.94 (1.23) mg in series [1] (25 mg once daily 14 days, mean (SD)); 11.7 (1.69) mg in series [1] (50 mg once daily 14 days, mean (SD)); 19.2 (4.11) mg in series [1] (100 mg once daily 14 days, mean (SD)). Further, the CL renal was 53 mL/min in series [1] (urine and plasma, 25 mg once daily 14 days, Ae0-t/AUC0-t, mean (SD), read-out: CLr (converted)); 61.5 mL/min in series [1] (urine and plasma, 50 mg once daily 14 days, Ae0-t/AUC0-t, mean (SD), read-out: CLr (converted)); 45.2 mL/min in series [1] (urine and plasma, 100 mg once daily 14 days, Ae0-t/AUC0-t, mean (SD), read-out: CLr (converted)); 45.2 to 61.5 mL/min in series [1] (urine, US participants, 25 mg to 100 mg, read-out: mean renal clearance). Besides, in “Solubility in vitro”, the solubility entry is reported as “high solubility”.
